# From patent US12576039B2, “Lipid-polymer compositions and methods of use” (Max Biology Co. Ltd., priority 2020, dated 2026)
# Columns and labels:
# [1] = Saturated solubility of CBD (HPLC); format: physicochemical; details: formulations containing PLURONIC F127 from 7% to 11%, excess CBD stirred overnight at room temperature, filtered 0.45 μm
# Experimental: To determine the saturated solubility of CBD in the presence of PLURONIC® F127, PLURONIC® formulations were made as above. To each formulation excess CBD was added and left stirring overnight on a magnetic stirrer at room temperature (FIG. 17). To see how addition of lipids affects saturated solubility, lipids were added to 5% PLURONIC® F127 containing excess CBD using the ethanol injection method. For this, a 19G needle was immersed into the formulation being stirred, and 8.11% (volume of sample end volume) of the lipid stock formulation was injected at the rate of 750 μl/7 sec. Each formulation at this point was then left stirring overnight as above. On the following day, the formulations were filtered using 0.45 μm syringe filters and the amount of CBD dissolved was quantified using high pressure liquid chromatography.
# CBD content was determined by diluting the samples in acetonitrile (ACN) (as needed) and then analysing them using HPLC. Calibration curve and sample quantification was carried out using an Agilent Infinity 1260 system. An Eclipse Plus C18, 4.6×150 mm, 3.5 μm column was purchased from […]. The mobile phase used was ACN:Water (82:18 v/v). HPLC analysis was carried at room temperature at a flow rate of 1 ml/min and an injection volume of 20 μl. […] Particle size and polydispersity was determined using a Brookhaven dynamic light scattering system.
# [2] = very low solubility in water, high lipophilicity; cited from earlier work
smiles,measurement,setting,value
"C=C(C)[C@@H]1CCC(C)=C[C@H]1c1c(O)cc(CCCCC)cc1O [CBD, cannabidiol]",peak CBD concentration (saturated solubility),[1],approximately 2 % w/v
same,Biopharmaceutical Classification System (BCS) classification,[2],class 2
